# Reference: patent US9902696B2, “1,4-substituted piperidine derivatives” (Cephalon, Inc., priority 2015, dated 2018)
# Where a name gives a salt, the structure may show the parent alone.
# Target: T1, recombinant human baculovirus-expressed GST-tagged FASN (Homo sapiens, UniProt P49327)
# T1 construct: GST
# Assay: FASN enzyme activity assay, fluorescence-based detection of CoA with CPM
# Type: biochemical
# Conditions: 5 nM FASN, 150 μM NADPH, 10 μM acetyl-CoA, 25 μM malonyl-CoA, 90 minutes incubation; read-out: IC50 data for Compounds of Formulae I-V/V(a): Activity
# Description: FASN Enzyme activity may be determined by detecting coenzyme A (CoA), a product of FASN-catalyzed synthesis of palmitate from acetyl-CoA and malonyl-CoA with NADPH as a cofactor. The assay is fluorescence-based and measures the interaction of free CoA with 7-diethylamino-3-(4′-malemimidylphenyl)-4-methylcoumarin (CPM; Life Technologies, CA) as described in Chung et al (2008). The coumarin derivative CPM contains a thiol-reactive maleimide that becomes fluorescent upon interaction with the sulfhydryl group of CoA.
# For the example compounds described herein, the reaction was performed in 384-well low volume non-binding plates (Corning, N.Y.) using recombinant human baculovirus-expressed GST-tagged FASN. The 20-μL assay mixture contained 50 mM HEPES (pH 7.5), 5 nM FASN, 150 μM NADPH (Sigma, St. Louis, Mo.), 10 μM acetyl-CoA (Sigma), 25 μM malonyl-CoA (Sigma) and test compound [diluted in dimethyl sulfoxide (DMSO); 0.5% DMSO final in assay after 100 nL addition]. See, Chung et al.; “A fluorescence-based thiol quantification assay for ultra-high-throughput screening for inhibitors of coenzyme A production,” Assay Drug Dev Tech 2008; 6:361-374.
# The reaction was initiated by adding malonyl-CoA, followed by incubation for 90 minutes at […]. A stock solution of the CPM reagent was prepared in DMSO at […] and stored at […]. To detect CoA produced in the FASN reaction, the CPM stock was diluted to […] in 70% ethanol and added at 4 μL/well to the assay plate. The reaction mixture was then incubated for 30 minutes. Fluorescence was measured using the EnVision™ 2102 multi-label plate reader (PerkinElmer, Waltham, Mass.) utilizing a general dual mirror, a 390 nm excitation filter and a 530 nm emission filter. Data analysis was performed using ActivityBase (IDBS, Guilford, UK). IC50 values were calculated by plotting the percent inhibition versus log 10 of the concentration of the compound, and fitting to the nonlinear regression sigmoidal dose-response (variable slope) equation in XLFit (IDBS).
# T1 sequence (P49327 whole entry): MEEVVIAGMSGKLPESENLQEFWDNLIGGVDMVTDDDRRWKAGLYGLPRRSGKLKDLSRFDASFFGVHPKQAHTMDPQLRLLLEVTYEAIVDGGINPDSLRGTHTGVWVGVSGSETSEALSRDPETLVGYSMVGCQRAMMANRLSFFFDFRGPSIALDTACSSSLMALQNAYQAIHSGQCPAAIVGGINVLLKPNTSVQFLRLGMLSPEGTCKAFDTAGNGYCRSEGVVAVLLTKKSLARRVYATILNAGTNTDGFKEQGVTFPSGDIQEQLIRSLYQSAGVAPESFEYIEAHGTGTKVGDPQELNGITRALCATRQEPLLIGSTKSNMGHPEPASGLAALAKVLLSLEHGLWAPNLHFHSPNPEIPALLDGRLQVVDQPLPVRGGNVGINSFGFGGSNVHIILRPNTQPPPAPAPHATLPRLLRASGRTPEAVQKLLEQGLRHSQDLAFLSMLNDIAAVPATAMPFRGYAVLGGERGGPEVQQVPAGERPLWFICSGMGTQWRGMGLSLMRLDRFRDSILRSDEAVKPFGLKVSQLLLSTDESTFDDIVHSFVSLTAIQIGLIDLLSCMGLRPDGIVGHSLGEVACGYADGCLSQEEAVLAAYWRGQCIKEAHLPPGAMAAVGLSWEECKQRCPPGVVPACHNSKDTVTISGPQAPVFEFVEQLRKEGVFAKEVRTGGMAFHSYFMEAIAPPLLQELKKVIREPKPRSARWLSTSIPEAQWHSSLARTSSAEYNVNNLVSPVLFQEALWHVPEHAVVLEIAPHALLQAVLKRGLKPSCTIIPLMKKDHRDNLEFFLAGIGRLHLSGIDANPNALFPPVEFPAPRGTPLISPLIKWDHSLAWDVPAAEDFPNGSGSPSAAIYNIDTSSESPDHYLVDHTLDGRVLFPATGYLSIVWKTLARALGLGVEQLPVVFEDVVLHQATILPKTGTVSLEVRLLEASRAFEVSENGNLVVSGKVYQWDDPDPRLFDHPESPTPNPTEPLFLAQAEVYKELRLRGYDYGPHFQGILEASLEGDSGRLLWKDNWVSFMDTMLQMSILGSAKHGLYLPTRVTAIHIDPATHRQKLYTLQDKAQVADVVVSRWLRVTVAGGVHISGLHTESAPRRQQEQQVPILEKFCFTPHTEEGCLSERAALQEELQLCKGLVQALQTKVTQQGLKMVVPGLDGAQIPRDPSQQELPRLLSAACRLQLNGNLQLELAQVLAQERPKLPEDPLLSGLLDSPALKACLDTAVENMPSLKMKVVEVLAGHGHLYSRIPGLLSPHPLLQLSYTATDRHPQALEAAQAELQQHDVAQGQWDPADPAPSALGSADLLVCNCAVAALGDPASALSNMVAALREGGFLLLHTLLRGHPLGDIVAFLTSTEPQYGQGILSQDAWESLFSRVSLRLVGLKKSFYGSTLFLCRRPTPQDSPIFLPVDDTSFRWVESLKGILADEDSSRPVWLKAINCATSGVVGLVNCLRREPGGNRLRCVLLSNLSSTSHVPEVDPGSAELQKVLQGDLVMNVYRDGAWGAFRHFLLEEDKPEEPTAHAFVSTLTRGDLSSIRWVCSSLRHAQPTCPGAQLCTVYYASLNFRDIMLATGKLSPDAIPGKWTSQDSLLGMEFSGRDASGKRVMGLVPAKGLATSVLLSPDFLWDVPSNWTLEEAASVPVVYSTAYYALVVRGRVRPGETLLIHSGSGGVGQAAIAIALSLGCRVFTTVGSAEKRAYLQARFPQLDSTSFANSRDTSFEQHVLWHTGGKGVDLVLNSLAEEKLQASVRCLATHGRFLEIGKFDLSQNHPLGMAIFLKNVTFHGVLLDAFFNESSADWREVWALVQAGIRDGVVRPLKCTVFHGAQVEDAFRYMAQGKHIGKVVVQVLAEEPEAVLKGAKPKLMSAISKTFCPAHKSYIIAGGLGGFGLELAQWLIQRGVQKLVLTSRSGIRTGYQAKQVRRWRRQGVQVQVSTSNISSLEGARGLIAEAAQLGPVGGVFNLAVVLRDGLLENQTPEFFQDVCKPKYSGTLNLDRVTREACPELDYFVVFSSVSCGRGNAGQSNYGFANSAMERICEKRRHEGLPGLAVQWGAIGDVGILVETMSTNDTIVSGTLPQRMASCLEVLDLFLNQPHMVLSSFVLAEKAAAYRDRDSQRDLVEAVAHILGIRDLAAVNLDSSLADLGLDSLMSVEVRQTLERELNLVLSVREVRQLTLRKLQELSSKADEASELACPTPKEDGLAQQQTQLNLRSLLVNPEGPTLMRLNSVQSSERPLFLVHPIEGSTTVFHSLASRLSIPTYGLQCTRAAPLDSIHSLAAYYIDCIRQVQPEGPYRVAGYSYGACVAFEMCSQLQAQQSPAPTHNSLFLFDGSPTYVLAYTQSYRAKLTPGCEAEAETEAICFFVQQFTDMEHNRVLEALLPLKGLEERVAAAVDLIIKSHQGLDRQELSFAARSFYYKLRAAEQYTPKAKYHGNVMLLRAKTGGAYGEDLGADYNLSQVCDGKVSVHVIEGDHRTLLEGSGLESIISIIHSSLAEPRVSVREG
row,Compound,IC50 [nM]
1,1-{4-[4-(4-Methylisoquinolin-6-yl)-phenox]-piperidin-1-yl}-propan-1-one HCl [Example 457],1 to 99
2,"Cc1c(-c2ccc(OC3CCN(C(=O)[C@H]4CCCO4)C(C)C3)cc2)ccc2cccnc12 (mixture of isomers) [Example 362, {2-Methyl-4-[4-(8-methylquinolin-7-yl)-phenoxy]-piperidin-1-yl}-(R)-tetrahydrofuran-2-yl-methanone, HCl]",1 to 99
3,"CCC(=O)N1CCC(Oc2ccc(-c3ccc4cccnc4c3C)cc2)CC1C (mixture of isomers) [Example 363, 1-{2-Methyl-4-[4-(8-methylquinolin-7-yl)-phenoxy]-piperidin-1-yl}-propan-1-one, HCl]",100 to 999
4,"CCC(=O)N1CCC(Oc2ccc(-c3ccc4cccnc4c3C)cc2)CC1C (mixture of isomers) [Example 364, 1-{2-Methyl-4-[4-(8-methylquinolin-7-yl)-phenoxy]-piperidin-1-yl}-propan-1-one, HCl]",100 to 999
5,"CCC(=O)N1CCC(Oc2ccc(-c3ccc4cccnc4c3C)cc2)C(C)C1 (mixture of isomers) [Example 375, 1-{3-Methyl-4-[4-(8-methylquinolin-7-yl)-phenoxy]-piperidin-1-yl}-propan-1-one, TFA salt]",1 to 99
6,"Cc1c(-c2ccc(O[C@H]3CCN4C(=O)CC[C@H]4C3)cc2)ccc2cccnc12 (racemic) [Example 355, (±)-(7S,8aS)-7-(4-(8-Methylquinolin-7-yl)phenoxy)hexahydroindolizin-3 (2H)-one]",1000 to 10000
7,"Cc1c(-c2ccc(O[C@@H]3CCN4C(=O)CC[C@H]4C3)cc2)ccc2cccnc12 (racemic) [Example 356, (±)-(7R,8aS)-7-(4-(8-Methylquinolin-7-yl)phenoxy)hexahydroindolizin-3(2H)-one]",1000 to 10000
8,"Cc1c(-c2ccc(OC3CCN(C(=O)C4CC4)C(C)C3)cc2)ccc2cccnc12 (racemic) [Example 365, Cyclopropyl-{2-methyl-4-[4-(8-methylquinolin-7-yl)-phenoxy]-piperidin-1-yl}-methanone HCl]",1000 to 10000
9,"Cc1c(-c2ccc(O[C@@H]3CCN(C(=O)[C@@H]4CCCO4)C[C@H]3F)cc2)ccc2cccnc12 (racemic) [Example 372, {(trans)-3-Fluoro-4-[4-(8-methylquinolin-7-yl)-phenoxy]-piperidin-1-yl}-(R)-tetrahydrofuran-2-yl-methanone, HCl]",1 to 99
10,"Cc1c(-c2ccc(O[C@H]3CCN(C(=O)C4CC4)C[C@H]3F)cc2)ccc2cccnc12 (relative stereo) [Example 368, Cyclopropyl-{cis-3-fluoro-4-[4-(8-methylquinolin-7-yl)-phenoxy]-piperidin-1-yl}-methanone, HCl]",1000 to 10000
11,"Cc1c(-c2ccc(O[C@@H]3CCN(C(=O)C4CC4)C[C@H]3F)cc2)ccc2cccnc12 (relative stereo) [Example 374, Cyclopropyl-{trans-3-fluoro-4-[4-(8-methylquinolin-7-yl)-phenoxy]-piperidin-1-yl}-methanone, HCl]",100 to 999
12,"Cc1ccc2ncccc2c1-c1ccc(OC2CCN(C(=O)C3CCCO3)CC2)cc1 (stereo in doubt) [Example 354, (R)-(4-(4-(6-Methylquinolin-5-yl)phenoxy)piperidin-1-yl)(tetrahydrofuran-2-yl)methanone]",1 to 99
13,"Cc1c(-c2ccc(OC3CCN(C(=O)C4CCCO4)CC3C)cc2)ccc2cccnc12 (stereo in doubt) [Example 377, {3-Methyl-4-[4-(8-methylquinolin-7-yl)-phenoxy]-piperidin-1-yl}-(R)-tetrahydrofuran-2-yl-methanone, TFA salt]",1 to 99
14,"CC(C)(C)OC(=O)N1CCC(Oc2ccc(-c3cnc4ccccc4c3)cc2F)CC1 [Example 5, 4-(2-Fluoro-4-quinolin-3-yl-phenox)piperidine-1-carboxylic acid t-butyl ester]",1000 to 10000

# The remaining lines, values ahead:
row,IC50 [nM],Compound
1,1 to 99,"C[C@H]1CCO[C@H]1C(=O)N1CCC(Oc2ccc(-c3cnc4ccccc4c3)cc2)CC1 (racemic) [Example 154, ((2R,3S)/(2S,3R)-3-Methyl-tetrahydrofuran-2-yl)-[4-(4-quinolin-3-yl-phenoxy)-piperidin-1-yl]-methanone, HCl]"
2,1000 to 10000,"C[C@@H]1C[C@H](C)[C@H](C(=O)N2CCC(Oc3ccc(-c4cnc5ccccc5c4)cc3)CC2)O1 (racemic) [Example 155, ((2R,3S,5R)/(2S,3R,5S)-3,5-Dimethyl-tetrahydrofuran-2-yl)-[4-(4-quinolin-3-yl-phenoxy)-piperidin-1-yl]-methanone, HCl]"
3,1000 to 10000,"CCC(=O)N1CC[C@H](Oc2ccc(-c3ccc4cccnc4c3C)cc2)[C@H](F)C1 (relative stereo) [Example 367, 1-{cis-3-Fluoro-4-[4-(8-methylquinolin-7-yl)-phenoxy]-piperidin-1-yl}-propan-1-one, HCl]"
4,100 to 999,"CCC(=O)N1CC[C@@H](Oc2ccc(-c3ccc4cccnc4c3C)cc2)[C@H](F)C1 (relative stereo) [Example 373, 1-{trans-3-Fluoro-4-[4-(8-methylquinolin-7-yl)-phenoxy]-piperidin-1-yl}-propan-1-one, HCl]"
5,1000 to 10000,"CCC(=O)N1CCC(Oc2ccc(-c3ccc4cccnc4c3)cc2)C1 (stereo in doubt) [Example 342, (S)-1-(3-(4-(Quinolin-7-yl)phenoxy)pyrrolidin-1-yl)propan-1-one, HCl]"
6,1 to 99,"CCC(=O)N1CCC(Oc2ccc(-c3ccc4cnccc4c3)cc2)CC1 [Example 1, 1-[4-(4-Isoquinolin-6-yl-phenoxy)-piperidin-1-yl]-propan-1-one]"
7,1 to 99,"CCC(=O)N1CCC(Oc2ccc(-c3cnc4ccccc4c3)cc2)CC1 [Example 2, 1-[4-(4-Quinolin-3-yl-phenoxy)-piperidin-1-yl]-propan-1-one]"
8,100 to 999,"CC(C)C(=O)N1CCC(Oc2ccc(-c3ccc4cccnc4c3)cc2)CC1 [Example 3, 2-Methyl-1-[4-(4-quinolin-7-yl-phenoxy)-piperidin-1-yl]-propan-1-one]"
9,1 to 99,"CCC(=O)N1CCC(Oc2ccc(-c3ccc4cccnc4c3)cc2)CC1 [Example 4, 1-[4-(4-Quinolin-7-yl-phenoxy)-piperidin-1-yl]-propan-1-one]"
10,1 to 99,"CCC(=O)N1CCC(Oc2ccc(-c3cnc4ccccc4c3)cc2F)CC1 [Example 6, 1-[4-(2-Fluoro-4-quinolin-3-yl-phenoxy)piperidin-1-yl]propan-1-one]"
11,1 to 99,"CC(C)C(=O)N1CCC(Oc2ccc(-c3cnc4ccccc4c3)cc2F)CC1 [Example 7, 1-[4-(2-Fluoro-4-quinolin-3-yl-phenoxy)-piperidin-1-yl]-2-methyl-propan-1-one]"
12,100 to 999,"CCC(=O)N1CCC(Oc2ccc(-c3ccc4occc4c3)cc2)CC1 [Example 8, 1-[4-(4-Benzofuran-5-yl-phenoxy)-piperidin-1-yl]-propan-1-one]"
13,1000 to 10000,"CC(C)C(=O)N1CCC(Oc2ccc(-c3ccc4occc4c3)cc2)CC1 [Example 9, 1-[4-(4-Benzofuran-5-yl-phenoxy)-piperidin-1-yl]-2-methyl-propan-1-one]"
14,1 to 99,"CCC(=O)N1CCC(Oc2ccc(-c3ccc4ccccc4c3)cc2)CC1 [Example 10, 1-[4-(4-Naphthalen-2-yl-phenoxy)-piperidin-1-yl]-propan-1-one]"
15,1000 to 10000,"CC(C)C(=O)N1CCC(Oc2ccc(-c3ccc4ccccc4c3)cc2)CC1 [Example 11, 2-Methyl-1-[4-(4-naphthalen-2-yl-phenoxy)-piperidin-1-yl]-propan-1-one]"
16,1000 to 10000,"CCC(=O)N1CCC(Oc2ccc(-c3cnc4cccnc4c3)cc2)CC1 [Example 12, 1-[4-(4-1,5-Naphthyridin-3-yl-phenoxy)-piperidin-1-yl]-propan-1-one]"
17,1000 to 10000,"CC(C)C(=O)N1CCC(Oc2ccc(-c3cnc4cccnc4c3)cc2)CC1 [Example 13, 2-Methyl-1-[4-(4-1,5-naphthyridin-3-yl-phenoxy)-piperidin-1-yl]-propan-1-one]"
18,1000 to 10000,"O=C(C1CC1)N1CCC(Oc2ccc(-c3cnc4cccnc4c3)cc2)CC1 [Example 14, Cyclopropyl-[4-(4-1,5-naphthyridin-3-yl-phenoxy)-piperidin-1-yl]-methanone]"
19,1000 to 10000,"COC(=O)N1CCC(Oc2ccc(-c3cnc4ccccc4c3)cc2F)CC1 [Example 15, 4-(2-Fluoro-4-quinolin-3-yl-phenoxy)-piperidine-1-carboxylic acid methyl ester]"
20,1000 to 10000,"CCC(=O)N1CCC(Oc2ccc(-c3cc4ccccc4nc3Cl)cc2)CC1 [Example 16, 1-{4-[4-(2-Chloroquinolin-3-yl)-phenoxy]-piperidin-1-yl}-propan-1-one]"
